For series [1] the following is noted: done at EVER NeuroPharma GmbH, cited from earlier work. On the procedure:
The studies regarding the plasma stability and stability in gastric and intestinal juices of P021 were done at EVER NeuroPharma GmbH, Unterach, Austria[67]. Briefly, the compound P021 was found stable both in artificial gastric juice (>90%) and in artificial intestinal juice (>95%) as analyzed up to 30 min and 2 hours, respectively.

A further series deals with Ts65Dn mice. Briefly: General examination and monthly body weight, adult mice and mothers. In kind it is in vivo. From the text: We treated 2–3-month-old pregnant Ts65Dn (Dn) and wild-type (WT) mothers from day 8 (E8) of pregnancy till the weaning of the pups on PND21 with compound P021 (P) in the feed, or as control with vehicle (V) feed (Fig. 1). The offsprings also had access to the P021 or vehicle diet as per mother’s group till PND21. The offsprings from Ts65Dn mothers were genotyped to identify Ts65Dn and WT pups. There were 6 study groups as follows: WT offsprings of WT mothers on vehicle diet (WT-V-WT), WT offsprings of WT mothers on P021 diet (WT-P-WT), WT offsprings of Ts65Dn mothers on vehicle diet (Dn-V-WT), WT offsprings of Ts65Dn mothers on P021 diet (Dn-P-WT), Ts65Dn offsprings of Ts65Dn mothers on vehicle diet (Dn-V-Dn), and Ts65Dn offsprings of Ts65Dn mothers on P021 diet (Dn-P-Dn). In the first phase of the study (Fig. 1b), the newborn pups were evaluated for neurobehavioral development starting on PND1 and carried out until PND21 (or until the appearance of developmental milestone/reflex). After completion of behavioral testing, the 3-week-old mice were sacrificed and brain tissue was collected. The neurobehavioral development component of the study was performed on WT-V-WT (n = 11), WT-P-WT (n = 10), Dn-V-WT (n = 10), Dn-P-WT (n = 9), Dn-V-Dn (n = 11), and Dn-P-Dn (n = 12) mice. In the second phase of the study (Fig. 1c), after prenatal to early postnatal treatment, the offsprings were allowed to grow till 5 months of age, and then general behavioral evaluation and cognitive testing were performed. After weaning, the offsprings received regular mouse chow. After completion of behavioral testing, ~7-month-old animals were sacrificed and brain tissue was collected for biochemical analyses. This longitudinal component of the study was carried out on WT-V-WT (n = 10), WT-P-WT (n = 12), Dn-V-WT (n = 12), Dn-P-WT (n = 11), Dn-V-Dn (n = 13), and Dn-P-Dn (n = 12) mice.
For both the neurobehavioral development in mouse pups and the longitudinal adult mice studies, the physical state and condition of the animals (both mothers and offsprings) were carefully examined throughout the respective study duration. Body weight of mouse pups was recorded daily from PND1 to PND21. Body weight of adult mice was evaluated monthly. Adult mice were not subjected to any behavioral testing till they were ~5 months of age.

The conditions of series [2]: adult C57Bl/6 mice, commercial service APREDICA; cited from earlier work.
For series [3] the following is noted: cited from earlier work. An excerpt: The compound P021 exerts a neurogenic and neurotrophic effect by inhibiting leukemia inhibitory factor (LIF) signaling pathway and enhancing brain derived neurotrophic factor (BDNF) expression by increasing its transcription.
For series [4], the system named is STAT3 phosphorylation at Tyr705. Briefly: Western blot of pSTAT3 (Tyr705) in hippocampus of 3-week-old offspring (placental/lactational and BBB delivery). The conditions noted are these: inferred from reduced hippocampal pSTAT3 in 3-week-old offspring; 200 nmoles/g diet to dams E8-PND21. The class given is in vivo, WT and Ts65Dn mice. As to the method: The studies regarding the plasma stability and stability in gastric and intestinal juices of P021 were done at EVER NeuroPharma GmbH, Unterach, Austria[67]. Briefly, the compound P021 was found stable both in artificial gastric juice (>90%) and in artificial intestinal juice (>95%) as analyzed up to 30 min and 2 hours, respectively. […] It is also worth mentioning that young mice may have consumed some P021 diet directly as young mice start consuming solid food by ~PND16.
After completion of behavioral testing, the 3-week-old mice from the neurobehavioral development study and the ~7-month-old mice from the longitudinal study were anesthetized with an overdose of sodium pentobarbital (125 mg/kg) and were transcardially perfused with 0.1 M phosphate buffered saline (PBS). The mouse brains were extracted immediately after perfusion. The left hemisphere of the brain was dissected into hippocampus, cerebral cortex, cerebellum, and brain stem, immediately frozen on dry ice, and then stored at −80 °C till further processing for biochemical analysis.
The hippocampus from left cerebral hemisphere stored at −80 °C from each mouse was homogenized in a Teflon-glass homogenizer to obtain 10% (w/v) homogenate. […] The blots were developed and quantified as described before. For quantification of different protein levels, each immunoreactive band was normalized to its corresponding GAPDH band.
(In western blotting, separated proteins are transferred to a membrane and probed.)

Another series relates to 3xTg-AD mice. The conditions noted are these: concluded from hippocampal pSTAT3 decrease after oral P021 in diet; cited from earlier work.
The conditions of series [5]: administration in clinical trials, humans; cited from earlier work. From the text: Overall, we observed a significant group effect in body weight [Fig. 7a; 2-way ANOVA, F(5,410) = 14.28, p < 0.0001] and its change with age [F(4,410) = 100.25, p < 0.0001], however, group × age interaction was not significant [F(20,410) = 0.10, p = 1.0]. Bonferroni’s p ...

The values that follow come from publication PMC5377379, “Early neurotrophic pharmacotherapy rescues developmental delay and Alzheimer’s-like memory deficits in the Ts65Dn mouse model of Down syndrome” (Scientific Reports, 2017).

Where a SMILES comes first, the peptide text is derived from it. The star is where a group is joined. X1 = NC(=O)C12CC3CC(CC(N*)(C3)C1)C2 Bounds are passed on as bounds.

Take `CC(=O)N[C@@H](CC(=O)O)C(=O)NCC(=O)NCC(=O)N[C@@H](CC(C)C)C(=O)NC12CC3CC(C1)CC(C(N)=O)(C3)C2` [Peptide P021] (Ac-DGGL-X1): the “stable in artificial gastric juice” value in series [1] (analyzed up to 30 min) is reported as over 90%. In addition, in series [1] (analyzed up to 2 hours), the “stable in artificial intestinal juice” value was over 95%. Further, the “general behavioral profile of the adult mice” value in the series with Ts65Dn mice (adult offspring treated E8-PND21) is reported as “did not affect the general behavioral profile”. Further, the “body weight, adult Ts65Dn mice” value with Ts65Dn mice (monthly evaluation, Dn-V-Dn vs. Dn-P-Dn, p > 0.05, treated E8-PND21) is “did not induce any significant changes in body weight”. For the same molecule, in the series on Ts65Dn mice (monthly evaluation, WT-V-WT vs. WT-P-WT and Dn-V-WT vs. Dn-P-WT, p > 0.05), the “body weight, adult WT mice” value was “did not produce any alterations in body weight”. Further, the “general physical condition of treated mothers” value in the series with Ts65Dn mice (pregnant mothers on P021 diet, evaluated up to 2-3 months after weaning the pups) was “did not show any treatment-induced alteration in their general physical condition”. Further, the BBB permeability entry in series [2] was “BBB-permeable”. The water solubility result in series [3] is given as “water-soluble”. For the same molecule, in series [4], the “placental/lactational delivery to offspring brain” value was “delivered across placental barrier during pregnancy and via breast milk during lactation”. The oral bioavailability result in the series on 3xTg-AD mice is “orally bioavailable”.

B1: full-length human recombinant CNTF protein: full-length human recombinant ciliary neurotrophic factor protein given in clinical trials (protein, UniProt P26441 1-200, looked up)
chain: MAFTEHSPLTPHRRDLCSRSIWLARKIRSDLTALTESYVKHQGLNKNINLDSADGMPVASTDQWSELTEAERLQENLQAYRTFHVLLARLLEDQQVHFTPTEGDFHQAIHTLLLQVAAFAYQIEELMILLEYKIPRNEADGMPINVGDGGLFEKKLWGLKVLQELSQWTVRSIHDLRFISSHQTGIPARGSHYIANNKKM
modifications: full-length
As to B1, the “adverse effects in clinical trials” value in series [5] was “anorexia, skeletal muscle loss, hyperalgesia, severe cramps, and muscle pain”.
